Data reported in patent US20230103791A1 (GLAXOSMITHKLINE INTELLECTUAL PROPERTY DEVELOPMENT LIMITED, priority 2019, published 2023).

Each compound was assayed against T1, human Nav1.8 (Homo sapiens, UniProt Q9Y5Y9) (assay: Nav1.8 sodium channels assay, QPatch 48 HTX electrophysiology in HEK293-Nav1.8 cells). Details: Table 1; HEK293-Nav1.8, QPatch 48 HTX, half inactivation state voltage protocol (V1/2); single run or average of two or more runs; read-out: Nav1.8 pIC50 (converted).
T1 construct: expressed in transfected cells; host or cells: HEK293 (HEK293-Nav1.8)
T1 sequence (Q9Y5Y9 whole entry): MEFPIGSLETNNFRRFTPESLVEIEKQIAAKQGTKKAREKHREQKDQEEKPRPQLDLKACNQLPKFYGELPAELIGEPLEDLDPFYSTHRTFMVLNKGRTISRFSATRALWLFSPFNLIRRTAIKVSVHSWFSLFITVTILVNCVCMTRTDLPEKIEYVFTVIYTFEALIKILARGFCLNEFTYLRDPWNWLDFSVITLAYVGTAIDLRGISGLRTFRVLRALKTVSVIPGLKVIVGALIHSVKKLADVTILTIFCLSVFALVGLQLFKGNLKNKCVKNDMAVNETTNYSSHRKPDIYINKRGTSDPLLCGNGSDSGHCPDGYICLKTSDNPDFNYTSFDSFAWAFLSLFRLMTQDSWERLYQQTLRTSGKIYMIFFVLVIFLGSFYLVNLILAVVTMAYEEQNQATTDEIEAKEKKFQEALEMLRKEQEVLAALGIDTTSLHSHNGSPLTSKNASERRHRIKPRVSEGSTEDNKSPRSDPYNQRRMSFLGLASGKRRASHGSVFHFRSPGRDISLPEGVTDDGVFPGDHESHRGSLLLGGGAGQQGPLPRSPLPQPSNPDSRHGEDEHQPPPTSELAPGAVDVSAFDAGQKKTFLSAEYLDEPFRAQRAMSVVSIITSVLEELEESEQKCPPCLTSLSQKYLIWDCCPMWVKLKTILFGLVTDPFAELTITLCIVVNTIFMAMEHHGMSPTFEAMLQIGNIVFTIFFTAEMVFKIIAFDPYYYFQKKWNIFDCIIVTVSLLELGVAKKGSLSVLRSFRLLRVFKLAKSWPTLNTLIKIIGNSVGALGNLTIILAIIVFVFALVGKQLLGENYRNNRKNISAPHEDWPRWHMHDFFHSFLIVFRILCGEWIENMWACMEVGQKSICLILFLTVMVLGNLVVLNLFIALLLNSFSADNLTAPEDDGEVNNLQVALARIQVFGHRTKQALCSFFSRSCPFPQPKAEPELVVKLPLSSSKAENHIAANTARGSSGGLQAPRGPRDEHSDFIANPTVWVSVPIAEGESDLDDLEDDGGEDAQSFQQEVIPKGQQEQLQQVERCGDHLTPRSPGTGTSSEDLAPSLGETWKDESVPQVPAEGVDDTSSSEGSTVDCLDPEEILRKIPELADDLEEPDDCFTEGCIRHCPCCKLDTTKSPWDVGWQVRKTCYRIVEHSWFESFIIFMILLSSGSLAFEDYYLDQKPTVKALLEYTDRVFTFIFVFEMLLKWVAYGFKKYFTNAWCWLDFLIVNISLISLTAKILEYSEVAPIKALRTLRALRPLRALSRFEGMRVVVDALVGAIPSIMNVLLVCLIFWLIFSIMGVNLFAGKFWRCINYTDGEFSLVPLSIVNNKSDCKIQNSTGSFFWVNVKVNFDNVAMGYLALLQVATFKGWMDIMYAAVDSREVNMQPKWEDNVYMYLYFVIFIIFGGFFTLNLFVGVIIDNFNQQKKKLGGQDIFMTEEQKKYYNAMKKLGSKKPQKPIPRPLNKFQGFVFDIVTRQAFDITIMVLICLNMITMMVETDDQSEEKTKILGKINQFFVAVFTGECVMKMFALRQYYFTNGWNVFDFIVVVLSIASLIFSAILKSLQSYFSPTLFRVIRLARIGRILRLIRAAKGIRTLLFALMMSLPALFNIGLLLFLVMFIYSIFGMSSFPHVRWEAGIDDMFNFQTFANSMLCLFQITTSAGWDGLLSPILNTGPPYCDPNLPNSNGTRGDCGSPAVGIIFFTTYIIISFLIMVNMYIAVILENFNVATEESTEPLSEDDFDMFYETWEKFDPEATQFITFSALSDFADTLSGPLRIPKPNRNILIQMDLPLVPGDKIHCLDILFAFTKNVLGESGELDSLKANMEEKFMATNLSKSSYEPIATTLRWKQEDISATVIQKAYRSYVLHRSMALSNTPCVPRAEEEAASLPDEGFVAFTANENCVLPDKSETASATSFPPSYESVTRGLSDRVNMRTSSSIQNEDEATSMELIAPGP
T1 sequence (Q07699 19-218 partner): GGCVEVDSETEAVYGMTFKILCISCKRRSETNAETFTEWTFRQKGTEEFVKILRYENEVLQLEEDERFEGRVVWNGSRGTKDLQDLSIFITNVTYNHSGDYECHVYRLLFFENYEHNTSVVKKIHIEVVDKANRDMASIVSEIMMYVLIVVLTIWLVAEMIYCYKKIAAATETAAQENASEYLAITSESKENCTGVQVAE
Assay type: cell-based
Method in brief: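 HEK293 cells co-expressing human Nav1.8, Navβ1 and TREK1 were voltage-clamped on QPatch 48 HTX. The V1/2 protocol ran at 0.07 Hz: hold −100 mV, 20 ms to 0 mV, 8 s at −46 mV, 20 ms at −100 mV, then 20 ms at 0 mV (P2). P2 current was fitted over 6-8 concentrations for IC50, with vehicle wells used to correct for run-down.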
With `Cc1cc(F)ccc1N1CN(c2ccc(=O)[nH]c2C)C(=O)c2ccc(C(F)(F)F)nc21` [drawing 288, 1-(4-fluoro-2-methylphenyl)-3-(2-methyl-6-oxo-1,6-dihydropyridin-3-yl)-7-(trifluoromethyl)-2,3-dihydropyrido[2,3-d]pyrimidin-4(1H)-one] the IC50 was 0.251 µM.
Work on `Cc1ncccc1N1CN(c2ccc(=O)[nH]c2C)C(=O)c2ccc(C(F)(F)F)cc21` [drawing 289, 3-(2-methyl-6-oxo-1,6-dihydropyridin-3-yl)-1-(2-methylpyridin-3-yl)-7-(trifluoromethyl)-2,3-dihydroquinazolin-4(1H)-one] yielded an IC50 of 2.51 µM.
`Cc1[nH]c(=O)ccc1N1CN(c2ccc(F)cc2C(C)C)c2cc(C(F)(F)F)ccc2C1=O` [drawing 290, 1-(4-fluoro-2-isopropylphenyl)-3-(2-methyl-6-oxo-1,6-dihydropyridin-3-yl)-7-(trifluoromethyl)-2,3-dihydroquinazolin-4(1H)-one] showed an IC50 of 0.00631 µM.
Work on `CCc1[nH]c(=O)ccc1N1CN(c2ccc(F)cc2C)c2cc(C(F)(F)F)ccc2C1=O` [drawing 291, 3-(2-ethyl-6-oxo-1,6-dihydropyridin-3-yl)-1-(4-fluoro-2-methylphenyl)-7-(trifluoromethyl)-2,3-dihydroquinazolin-4(1H)-one] yielded an IC50 of 0.02 µM.
`Cc1cc(F)ccc1N1CN(c2ccc(=O)[nH]c2Cl)C(=O)c2ccc(C(F)(F)F)cc21` [drawing 292, 3-(2-chloro-6-oxo-1,6-dihydropyridin-3-yl)-1-(4-fluoro-2-methylphenyl)-7-(trifluoromethyl)-2,3-dihydroquinazolin-4(1H)-one] showed an IC50 of 0.794 µM.
With `Cc1cc(F)ccc1N1CN(c2ccc(=O)[nH]c2C)C(=O)c2cc(Cl)ccc21` [drawing 293, 6-chloro-1-(4-fluoro-2-methylphenyl)-3-(2-methyl-6-oxo-1,6-dihydropyridin-3-yl)-2,3-dihydroquinazolin-4(1H)-one] the IC50 was 0.01 µM.
In the case of `Cc1[nH]c(=O)ccc1N1CN(c2ccc(F)cc2)c2ccccc2C1=O` [drawing 294, 1-(4-fluorophenyl)-3-(2-methyl-6-oxo-1,6-dihydropyridin-3-yl)-2,3-dihydroquinazolin-4(1H)-one], the IC50 is reported as 5.01 µM.
Work on `Cc1ccccc1N1CN(c2ccc(=O)[nH]c2C)C(=O)c2ccccc21` [drawing 295, 3-(2-methyl-6-oxo-1,6-dihydropyridin-3-yl)-1-(o-tolyl)-2,3-dihydroquinazolin-4(1H)-one] yielded an IC50 of 0.631 µM.
`Cc1ccc2c(c1)C(=O)N(c1ccc(=O)[nH]c1C)CN2c1ccc(F)cc1C` [drawing 296, 1-(4-fluoro-2-methylphenyl)-6-methyl-3-(2-methyl-6-oxo-1,6-dihydropyridin-3-yl)-2,3-dihydroquinazolin-4(1H)-one] showed an IC50 of 0.0501 µM.
With `Cc1cc(F)ccc1N1CN(c2ccc(=O)[nH]c2C)C(=O)c2ccccc21` [drawing 297, 1-(4-fluoro-2-methylphenyl)-3-(2-methyl-6-oxo-1,6-dihydropyridin-3-yl)-2,3-dihydroquinazolin-4(1H)-one] the IC50 was 0.0631 µM.
`Cc1cc(F)ccc1N1CN(c2ccc(=O)[nH]c2C)C(=O)c2ccc(Br)cc21` [drawing 298, 7-bromo-1-(4-fluoro-2-methylphenyl)-3-(2-methyl-6-oxo-1,6-dihydropyridin-3-yl)-2,3-dihydroquinazolin-4(1H)-one] gave an IC50 of 0.00316 µM.
`Cc1cc(F)ccc1N1CN(c2ccc(=O)[nH]c2C)C(=O)c2ccc(C#N)cc21` [drawing 299, 1-(4-fluoro-2-methylphenyl)-3-(2-methyl-6-oxo-1,6-dihydropyridin-3-yl)-4-oxo-1,2,3,4-tetrahydroquinazoline-7-carbonitrile] gave an IC50 of 0.0251 µM.
For `Cc1cc(F)ccc1N1CN(c2ccc(=O)[nH]c2C#N)C(=O)c2ccc(C(F)(F)F)cc21` [drawing 300, 3-(1-(4-fluoro-2-methylphenyl)-4-oxo-7-(trifluoromethyl)-1,4-dihydroquinazolin-3(2H)-yl)-6-oxo-1,6-dihydropyridine-2-carbonitrile], the IC50 was 0.251 µM.
With `Cc1[nH]c(=O)ccc1N1CN(c2ccc(F)cc2F)c2cc(C(F)(F)F)ccc2C1=O` [drawing 301, 1-(2,4-difluorophenyl)-3-(2-methyl-6-oxo-1,6-dihydropyridin-3-yl)-7-(trifluoromethyl)-2,3-dihydroquinazolin-4(1H)-one] the IC50 was 0.251 µM.
With `CCOc1ccc(N2CN(c3ccc(=O)[nH]c3C)C(=O)c3ccc(C(F)(F)F)cc32)cc1` [drawing 302, 1-(4-ethoxyphenyl)-3-(2-methyl-6-oxo-1,6-dihydropyridin-3-yl)-7-(trifluoromethyl)-2,3-dihydroquinazolin-4(1H)-one] the IC50 was 0.398 µM.
With `Cc1cc(F)ccc1N1CN(c2ccc(=O)[nH]c2C)C(=O)c2ccc(OC(F)(F)F)cc21` [drawing 303, 1-(4-fluoro-2-methylphenyl)-3-(2-methyl-6-oxo-1,6-dihydropyridin-3-yl)-7-(trifluoromethoxy)-2,3-dihydroquinazolin-4(1H)-one] the IC50 was 0.00316 µM.
`Cc1ccc2c(c1)N(c1ccc(F)cc1C)CN(c1ccc(=O)[nH]c1C)C2=O` [drawing 304, 1-(4-fluoro-2-methylphenyl)-7-methyl-3-(2-methyl-6-oxo-1,6-dihydropyridin-3-yl)-2,3-dihydroquinazolin-4(1H)-one] showed an IC50 of 0.00158 µM.
In the case of `Cc1cc(F)ccc1N1CN(c2ccc(=O)[nH]c2C)C(=O)c2cc(C(F)(F)F)ccc21` [drawing 305, 1-(4-fluoro-2-methylphenyl)-3-(2-methyl-6-oxo-1,6-dihydropyridine-3-yl)-6-(trifluoromethyl)-2,3-dihydroquinazolin-4(1H)-one], the IC50 is reported as 0.0126 µM.
`Cc1cc(F)ccc1N1CN(c2cnc(=O)[nH]c2)C(=O)c2ccc(C(F)(F)F)cc21` [drawing 306, 1-(4-fluoro-2-methylphenyl)-3-(2-oxo-1,2-dihydropyrimidin-5-yl)-7-(trifluoromethyl)-2,3-dihydroquinazolin-4(1H)-one] gave an IC50 of 0.501 µM.
Work on `Cc1cc(F)ccc1N1CN(c2ccc(=O)[nH]n2)C(=O)c2ccc(C(F)(F)F)cc21` [drawing 307, 1-(4-fluoro-2-methylphenyl)-3-(6-oxo-1,6-dihydropyridazin-3-yl)-7-(trifluoromethyl)-2,3-dihydroquinazolin-4(1H)-one] yielded an IC50 of 2 µM.
`Cc1cc(F)ccc1N1CN(c2ncc(=O)[nH]c2C)C(=O)c2ccc(C(F)(F)F)cc21` [drawing 308, 1-(4-fluoro-2-methylphenyl)-3-(3-methyl-5-oxo-4,5-dihydropyrazin-2-yl)-7-(trifluoromethyl)-2,3-dihydroquinazolin-4(1H)-one] showed an IC50 of 0.398 µM.

Same assay, conditions: Table 2; HEK293-Nav1.8, QPatch 48 HTX, half inactivation state voltage protocol (V1/2); single run or average of two or more runs; read-out: Nav1.8 pIC50 (converted)
`Cc1cc(F)ccc1N1CN(c2cc[nH]c(=O)c2)C(=O)c2ccc(C(F)(F)F)cc21` [drawing 309, 1-(4-fluoro-2-methylphenyl)-3-(2-oxo-1,2-dihydropyridin-4-yl)-7-(trifluoromethyl)-2,3-dihydroquinazolin-4(1H)-one] gave an IC50 of 0.398 µM.
`Cc1cc(N2CN(c3ccc(F)cc3C)c3cc(C(F)(F)F)ccc3C2=O)cc(=O)[nH]1` [drawing 310, 1-(4-fluoro-2-methylphenyl)-3-(6-methyl-2-oxo-1,2-dihydropyridin-4-yl)-7-(trifluoromethyl)-2,3-dihydroquinazolin-4(1H)-one] was tested, and the IC50 was 2.51 µM.
Work on `Cc1c[nH]c(=O)cc1N1CN(c2ccc(F)cc2C)c2cc(C(F)(F)F)ccc2C1=O` [drawing 311, 1-(4-fluoro-2-methylphenyl)-3-(5-methyl-2-oxo-1,2-dihydropyridin-4-yl)-7-(trifluoromethyl)-2,3-dihydroquinazolin-4(1H)-one] yielded an IC50 of 1 µM.
`Cc1cc(F)ccc1N1CN(c2cc[nH]c(=O)c2C)C(=O)c2ccc(C(F)(F)F)cc21` [drawing 312, 1-(4-fluoro-2-methylphenyl)-3-(3-methyl-2-oxo-1,2-dihydropyridin-4-yl)-7-(trifluoromethyl)-2,3-dihydroquinazolin-4(1H)-one] showed an IC50 of 1.26 µM.
